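Results reflect a 48-hour exposure of cells in 96-well plates to compound at five concentrations. The concentration for 50% growth inhibition is given as GI50.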 Activity calls are given as the source filed them. Rule as the data show it: active = GI50 up to about 1.1 µM and inactive = higher.
Experiments:
Assay in all cases: NCI tumour cell line growth inhibition, 48 h
HOP-62 = tested on: HOP-62
SW-620 = tested on: SW-620
HCC 2998 = tested on: HCC 2998
M14 = tested on: M14
NCI-H522 = tested on: NCI-H522
SNB-19 = tested on: SNB-19
OVCAR-5 = tested on: OVCAR-5
EKVX = tested on: EKVX
OVCAR-4 = tested on: OVCAR-4
SF-268 = tested on: SF-268
SNB-75 = tested on: SNB-75
A498 = tested on: A498
K562 = tested on: K562
SK-MEL-28 = tested on: SK-MEL-28
U-251 = tested on: U-251
COLO 205 = tested on: COLO 205
MOLT-4 = tested on: MOLT-4
SK-OV-3 = tested on: SK-OV-3
HCT-116 = tested on: HCT-116

Measured: GI50

COC(=O)/C=C\n1nc(Br)c(=O)[nH]c1=O
inactive: HOP-62 > 100 µM | SW-620 > 100 µM | HCC 2998 > 100 µM | M14 > 100 µM | NCI-H522 35.1 µM | SNB-19 > 100 µM | OVCAR-5 > 100 µM | EKVX > 100 µM | OVCAR-4 > 100 µM | SF-268 > 100 µM | SNB-75 > 100 µM | A498 > 100 µM | K562 > 100 µM | SK-MEL-28 > 100 µM | U-251 > 100 µM | COLO 205 > 100 µM

COc1cc(S(=O)(=O)Nc2ccc(-c3csc(N4C(=O)C(C)SC4c4cccc(Oc5ccccc5)c4)n3)cc2)ccc1Cl (stereo unspecified)
inactive: HOP-62 50.7 µM | SW-620 59 µM | M14 34.7 µM | MOLT-4 37.8 µM | NCI-H522 29.8 µM | SNB-19 86.9 µM | OVCAR-5 83.2 µM | EKVX 53.2 µM | SK-OV-3 52.6 µM | HCT-116 34.8 µM | SF-268 26.7 µM | SNB-75 52.1 µM | A498 27.4 µM | K562 36.5 µM | SK-MEL-28 55.8 µM | COLO 205 27.7 µM

O=c1[nH]cnc2sc(=S)c3c(c12)CCC3
inactive: HOP-62 52.2 µM | SW-620 21.6 µM | M14 34.2 µM | MOLT-4 11.7 µM | NCI-H522 15.9 µM | SNB-19 48.5 µM | OVCAR-5 47.8 µM | EKVX 47.6 µM | SK-OV-3 > 100 µM | OVCAR-4 33.5 µM | HCT-116 31.3 µM | SF-268 > 100 µM | SNB-75 > 100 µM | K562 12.2 µM | SK-MEL-28 40.1 µM | U-251 > 100 µM | COLO 205 14.4 µM

CC(=O)N(C(=O)CC(=O)N1N=C(C)C(/N=N/c2cccc([N+](=O)[O-])c2)C1=O)c1ccc(Cl)cc1 (stereo unspecified)
inactive: HOP-62 > 10 µM | SW-620 > 10 µM | HCC 2998 > 10 µM | M14 > 10 µM | NCI-H522 > 10 µM | SNB-19 > 10 µM | OVCAR-5 > 10 µM | SK-OV-3 > 10 µM | OVCAR-4 > 10 µM | HCT-116 > 10 µM | SF-268 > 10 µM | SNB-75 > 10 µM | K562 > 10 µM | SK-MEL-28 > 10 µM | U-251 > 10 µM | COLO 205 > 10 µM

CCOC(=O)C(Cc1c(-c2[nH]c3ccccc3c2CC(NC(=O)CNC(C)=O)C(=O)OCC)[nH]c2ccccc12)NC(=O)CNC(C)=O (stereo unspecified)
inactive: HOP-62 > 100 µM | SW-620 > 100 µM | HCC 2998 23.1 µM | M14 71.6 µM | MOLT-4 53.2 µM | NCI-H522 27.9 µM | SNB-19 > 100 µM | OVCAR-5 > 100 µM | EKVX > 100 µM | SK-OV-3 > 100 µM | OVCAR-4 > 100 µM | HCT-116 > 100 µM | SF-268 45.5 µM | SNB-75 22.1 µM | A498 65 µM | SK-MEL-28 45.4 µM | U-251 > 100 µM | COLO 205 18.6 µM

Clc1ccc(N/N=C(\c2ccccc2)c2ccccn2)nc1
active: HOP-62 1.12 µM | SW-620 < 0.01 µM | M14 < 0.01 µM | MOLT-4 < 0.01 µM | NCI-H522 < 0.01 µM | OVCAR-5 0.895 µM | EKVX < 0.01 µM | SK-OV-3 0.282 µM | HCT-116 < 0.0148 µM | SF-268 0.0258 µM | SNB-75 0.316 µM | U-251 0.031 µM | COLO 205 < 0.01 µM
inactive: HCC 2998 3.81 µM | SNB-19 1.17 µM | OVCAR-4 3.04 µM | A498 49.8 µM | SK-MEL-28 2.67 µM

Reference: ChEMBL document CHEMBL1201862, “PubChem BioAssay data set” (2004)
